The values that follow come from patent US9156853B2, “AKT inhibitor compounds for treatment of cancer” (ALMAC DISCOVERY LIMITED, priority 2012, dated 2015).

Usually IC50 stands for the concentration that gives 50% inhibition.

Type in all cases: biochemical
One test concerns the target T1, AKT2 (Homo sapiens, UniProt P31751).
T1 construct: purchased SignalChem
The test is described as follows: AKT Kinase Assay (IMAP fluorescent polarisation), AKT2 isoform. The following applies: for IC50: activated AKT2, FAM Crosstide substrate; for potency against AKT2 compared with the comparator compound: compared with the non-hydroxylated Compound A, F or L. On the procedure:
(§1) Testing of the compounds was performed using an AKT Kinase Assay:
(§2) Activated AKT isoforms 1, 2 and 3 were assayed utilising a 5′ FAM Crosstide (Seq. GRPRTSSFAEG-OH). The extent of kinase phosphorylation was determined by fluorescent polarisation using IMAP progressive binding reagent, which introduces binding beads which allow the reagent to specifically bind to phosphate residues via covalent co-ordination complex bonds.
(§3) iMAP binding solution stops Crosstide/kinase interaction and specifically binds phosphorylated substrates. The degree of phosphorylation is determined by fluorescent polarisation (excitation 485 nm; emission 528 nm) or the reduction in speed of rotation of the excited substrate.
(§4) The following materials were used in the assay: • a) Activated AKT isoforms (SignalChem.) dissolved in Complete Reaction buffer at a predetermined concentration selected so that the assay was carried out in the linear range. • b) AKT substrate peptide: FAM Crosstide (R7110) Molecular Devices, diluted in complete reaction buffer. • c) iMAP Progressive Screening Express Kit (R8127) Molecular Devices • d) Complete Reaction Buffer containing 0.1% BSA, 10 mM Tris-HCl, 10 mM MgCl2, 0.05% NaN3 and 0.01% phosphate free BSA, 1 mM DTT • e) Progressive Binding Solution containing 75% Buffer A, 25% Buffer B and low volume Binding Reagent which contains the binding entity for the assay • f) ATP diluted in complete reaction buffer • g) Black polystyrene 384 well assay plates (Nunc). • h) Biotek Synergy 4 Hybrid Plate reader.
(§5) 5 μl of test compound was dissolved in DMSO (Sigma Aldrich) and serially diluted in complete reaction buffer to give a fourteen point half log dose response and plated into 384 well black plates. The compound was incubated at room temperature with activated AKT isoform (5 μl) at the predetermined concentration, for 45 min.
(§6) 2.5 μl of ATP solution mixed with 2.5 μl of AKT substrate peptide (FAM Crosstide (R7110) Molecular Devices) were dispensed into each well and the plate centrifuged at 1000 rpm for 20 seconds to ensure homogenous mixing of reagents. The reaction mix was incubated in the dark for 1 h at room temperature.
(§7) The kinase reaction was stopped by the addition of Progressive Binding Solution and the mixture allowed to equilibrate for 1 h in the dark, at room temperature.
(§8) The fluorescent polarisation generated in each well was determined using a […] Synergy 4 Hybrid plate reader. In brief, each reaction solution was excited at 485 nm with the emission measured at 528 nm in both the parallel and perpendicular pathway.
(§9) The polarisation value generated in each well was calculated by Gen5 software (Biotek) and the % inhibition of kinase activity compared to vehicle control was calculated via GraphPad Prism. IC50 values for each compound were calculated by non-linear regression analysis using Prism software.
(§10) All plates were internally controlled by two methods. Firstly, by calculating the signal:noise ratio; based on kinase polarisation without inhibitor and polarisation generated by complete reaction buffer in the absence of activated kinase. Secondly by determining IC50 values generated by known inhibitors of the AKT isoforms.
(§11) The data was analysed using GraphPad Prism, with IC50 values generated using non-linear regression of the data set.

A further test has as its target T2, AKT3 (Homo sapiens, UniProt Q9Y243).
T2 construct: purchased SignalChem
The test is described as follows: AKT Kinase Assay (IMAP fluorescent polarisation), AKT3 isoform. The following applies: for IC50: activated AKT3, FAM Crosstide substrate; for potency against AKT3 compared with the comparator compound: compared with the non-hydroxylated Compound A, F or L. The protocol:
as §1, §2, §3, §4, §5, §6, §7, §8, §9, §10, §11

The target in a further test is T3, AKT1 (Homo sapiens, UniProt P31749).
T3 construct: purchased SignalChem
T3 sequence (P31749 whole entry): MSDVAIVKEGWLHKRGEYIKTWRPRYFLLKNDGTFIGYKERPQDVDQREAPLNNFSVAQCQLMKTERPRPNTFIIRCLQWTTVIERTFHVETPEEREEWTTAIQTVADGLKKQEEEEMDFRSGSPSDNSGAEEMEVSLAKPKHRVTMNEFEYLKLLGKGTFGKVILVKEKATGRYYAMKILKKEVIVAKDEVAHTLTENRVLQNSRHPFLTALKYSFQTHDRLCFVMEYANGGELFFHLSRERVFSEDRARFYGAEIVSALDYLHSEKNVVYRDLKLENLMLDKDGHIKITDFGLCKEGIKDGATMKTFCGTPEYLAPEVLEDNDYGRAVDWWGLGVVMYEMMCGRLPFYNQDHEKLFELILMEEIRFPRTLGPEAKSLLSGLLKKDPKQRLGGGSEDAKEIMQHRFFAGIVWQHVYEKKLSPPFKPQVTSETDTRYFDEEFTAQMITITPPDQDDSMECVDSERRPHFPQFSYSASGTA
The test is described as follows: AKT Kinase Assay (IMAP fluorescent polarisation), AKT1 isoform. The following applies: for IC50: activated AKT1, FAM Crosstide substrate; for potency against AKT1 compared with the comparator compound: compared with the non-hydroxylated Compound A, F or L. The protocol: as §1, §2, §3, §4, §5, §6, §7, §8, §9, §10, §11

Structures can show the parent of a compound that is named as a salt.

T2 sequence (Q9Y243 whole entry): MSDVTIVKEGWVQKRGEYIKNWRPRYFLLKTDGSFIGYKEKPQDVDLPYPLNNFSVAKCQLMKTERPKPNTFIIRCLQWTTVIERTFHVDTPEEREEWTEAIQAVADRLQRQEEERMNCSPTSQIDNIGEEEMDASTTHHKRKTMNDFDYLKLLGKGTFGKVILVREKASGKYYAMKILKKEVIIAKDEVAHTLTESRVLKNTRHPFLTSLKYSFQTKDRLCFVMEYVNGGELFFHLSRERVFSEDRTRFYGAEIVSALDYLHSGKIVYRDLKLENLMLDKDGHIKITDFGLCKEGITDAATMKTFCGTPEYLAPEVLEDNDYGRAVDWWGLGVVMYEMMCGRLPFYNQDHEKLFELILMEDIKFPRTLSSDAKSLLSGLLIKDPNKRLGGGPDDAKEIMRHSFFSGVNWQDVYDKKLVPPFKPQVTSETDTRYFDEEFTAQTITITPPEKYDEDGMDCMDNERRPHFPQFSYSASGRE
T1 sequence (P31751 whole entry): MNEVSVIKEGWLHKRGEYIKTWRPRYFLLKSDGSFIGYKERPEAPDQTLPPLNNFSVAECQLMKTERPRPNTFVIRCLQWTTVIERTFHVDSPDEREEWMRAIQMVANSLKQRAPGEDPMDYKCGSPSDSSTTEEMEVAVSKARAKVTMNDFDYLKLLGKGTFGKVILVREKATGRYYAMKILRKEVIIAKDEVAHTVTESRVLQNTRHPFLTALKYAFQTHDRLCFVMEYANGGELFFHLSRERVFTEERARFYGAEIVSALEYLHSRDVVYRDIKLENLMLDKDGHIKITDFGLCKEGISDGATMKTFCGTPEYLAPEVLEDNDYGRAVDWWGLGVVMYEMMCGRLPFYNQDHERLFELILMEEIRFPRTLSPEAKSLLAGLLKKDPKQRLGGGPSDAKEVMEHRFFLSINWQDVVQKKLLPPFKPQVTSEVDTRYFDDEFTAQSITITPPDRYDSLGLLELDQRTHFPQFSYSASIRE

With `C[C@]1(O)C[C@](N)(c2ccc(-c3sc4ncn(CC(F)(F)F)c(=O)c4c3-c3ccccc3)cc2)C1` [Compound 8, 6-(4-((1s,3s)-1-Amino-3-hydroxy-3-methylcyclobutyl)phenyl)-5-phenyl-3-(2,2,2-trifluoroethyl)thieno[2,3-d]pyrimidin-4(3H)-one.HCl], on AKT2, the IC50 is 20 to 100 nM and the “potency against AKT2 compared with the comparator compound” value is given as “improved potency”. In addition, at AKT3, the IC50 was in the range of 1 to 6 µM and the “potency against AKT3 compared with the comparator compound” value is listed as “improved potency”. Also, at AKT1, the IC50 is at most 300 nM and the “potency against AKT1 compared with the comparator compound” value is given as “improved potency”.
For `N[C@]1(c2ccc(-c3sc4ncn(CC(F)(F)F)c(=O)c4c3-c3ccccc3)cc2)C[C@H](O)C1` [Compound 9, 6-(4-((1s,3s)-1-Amino-3-hydroxycyclobutyl)phenyl)-5-phenyl-3-(2,2,2-trifluoroethyl)thieno[2,3-d]pyrimidin-4(3H)-one.HCl], on AKT2, the IC50 was at most 20 nM and the “potency against AKT2 compared with the comparator compound” value was “improved potency”. In addition, at AKT3, the IC50 lay within 1 to 6 µM and the “potency against AKT3 compared with the comparator compound” value is given as “improved potency”. For the same compound, at AKT1, the IC50 was at most 300 nM and the “potency against AKT1 compared with the comparator compound” value is listed as “improved potency”.
Take `Cn1c(-c2ccc([C@]3(N)C[C@@](C)(O)C3)cc2)c(-c2ccccc2)c2c(=O)n(CC(F)(F)F)cnc21` [Compound 10, 6-(4-((1s,3s)-1-Amino-3-hydroxy-3-methylcyclobutyl)phenyl)-7-methyl-5-phenyl-3-(2,2,2-trifluoroethyl)-3H-pyrrolo[2,3-d]pyrimidin-4(7H)-one.HCl]: on AKT2, the half-maximal inhibitory concentration (IC50) was at most 20 nM and the “potency against AKT2 compared with the comparator compound” value is given as “improved potency”. Moreover, at AKT3, the IC50 was 1 to 6 µM and the “potency against AKT3 compared with the comparator compound” value is “improved potency”. The IC50 at AKT1 was in the range of 300 to 1500 nM.
With `Cn1c(-c2ccc([C@]3(N)C[C@H](O)C3)cc2)c(-c2ccccc2)c2c(=O)n(CC(F)(F)F)cnc21` [Compound 11, 6-(4-((1r,3r)-1-Amino-3-hydroxycyclobutyl)phenyl)-7-methyl-5-phenyl-3-(2,2,2-trifluoroethyl)-3H-pyrrolo[2,3-d]pyrimidin-4(7H)-one.HCl], the IC50 at AKT2 was 20 to 100 nM; on AKT3, over 6 µM; on AKT1 it was over 1500 nM.
Regarding `N[C@]1(c2ccc(-c3sc4ncn(CC(F)(F)F)c(=O)c4c3-c3ccccc3)cc2)C[C@@H](O)C1` [Compound 12, 6-(4-((1r,3r)-1-Amino-3-hydroxycyclobutyl)phenyl)-5-phenyl-3-(2,2,2-trifluoroethyl)thieno[2,3-d]pyrimidin-4(3H)-one.HCl], on AKT2, the IC50 was in the range of 20 to 100 nM and the “potency against AKT2 compared with the comparator compound” value is listed as “improved potency”. Moreover, at AKT3, the IC50 fell in the range of 1 to 6 µM and the “potency against AKT3 compared with the comparator compound” value is “improved potency”. Besides, on AKT1, the IC50 was in the range of 300 to 1500 nM.
Take `C[C@]1(O)C[C@@](N)(c2ccc(-c3oc4ncn(CC(F)(F)F)c(=O)c4c3-c3ccncc3)cc2)C1` [Compound 13, 6-(4-((1r,3r)-1-Amino-3-hydroxy-3-methylcyclobutyl)phenyl)-5-(pyridin-4-yl)-3-(2,2,2-trifluoroethyl)furo[2,3-d]pyrimidin-4(3H)-one.TFA]: the IC50 at AKT2 is at most 20 nM; on AKT3, over 6 µM; on AKT1, over 1500 nM. The “selectivity for AKT2 over AKT1 and AKT3 compared with compound A” value on AKT2 (compared with compound A) is “greater selectivity”. The “potency against AKT2 compared with the comparator compound” value at AKT2 is “improved potency”.
For the compound `C[C@]1(O)C[C@@](N)(c2ccc(-c3oc4ncn(CC(F)(F)F)c(=O)c4c3-c3ccccn3)cc2)C1` [Compound 14, 6-(4-((1r,3r)-1-Amino-3-hydroxy-3-methylcyclobutyl)phenyl)-5-(pyridin-2-yl)-3-(2,2,2-trifluoroethyl)furo[2,3-d]pyrimidin-4(3H)-one.HCl], the values for the IC50 at AKT2, on AKT3 and at AKT1 were over 100 nM, over 6 µM and over 1500 nM, respectively.
As to `Cn1c(-c2ccc([C@]3(N)C[C@](C)(O)C3)cc2)c(-c2ccccn2)c2c(=O)n(CC(F)(F)F)cnc21` [Compound 15, 6-(4-((1r,3r)-1-Amino-3-hydroxy-3-methylcyclobutyl)phenyl)-7-methyl-5-(pyridin-2-yl)-3-(2,2,2-trifluoroethyl)-3H-pyrrolo[2,3-d]pyrimidin-4(7H)-one.TFA], the values for the IC50 on AKT2, at AKT3 and at AKT1 were over 100 nM, over 6 µM and over 1500 nM, respectively.
Regarding `Cn1c(-c2ccc([C@]3(N)C[C@](C)(O)C3)cc2)c(-c2cccnc2)c2c(=O)n(CC(F)(F)F)cnc21` [Compound 16, 6-(4-((1r,3r)-1-Amino-3-hydroxy-3-methylcyclobutyl)phenyl)-7-methyl-5-(pyridin-3-yl)-3-(2,2,2-trifluoroethyl)-3H-pyrrolo[2,3-d]pyrimidin-4(7H)-one.TFA], the IC50 at AKT2 was over 100 nM; on AKT3 it was over 6 µM; on AKT1 it was over 1500 nM.
Taken in the same sequence, the figures for `Cn1c(-c2ccc([C@]3(N)C[C@](C)(O)C3)cc2)c(-c2ccncc2)c2c(=O)n(CC(F)(F)F)cnc21` [Compound 17, 6-(4-((1r,3r)-1-Amino-3-hydroxy-3-methylcyclobutyl)phenyl)-7-methyl-5-(pyridin-4-yl)-3-(2,2,2-trifluoroethyl)-3H-pyrrolo[2,3-d]pyrimidin-4(7H)-one.HCl] were over 100 nM, over 6 µM and over 1500 nM.
Take `Cn1c(-c2ccc([C@]3(N)C[C@@](C)(O)C3)cc2)c(-c2ccccn2)c2c(=O)n(CC(F)(F)F)cnc21` [Compound 18, 6-(4-((1 s,3s)-1-Amino-3-hydroxy-3-methylcyclobutyl)phenyl)-7-methyl-5-(pyridin-2-yl)-3-(2,2,2-trifluoroethyl)-3H-pyrrolo[2,3-d]pyrimidin-4(7H)-one.HCl]: the results for the IC50 on AKT2, at AKT3 and at AKT1 were over 100 nM, over 6 µM and over 1500 nM, respectively.
In the same order, the values of `C[C@]1(O)C[C@](N)(c2ccc(-c3sc4ncn(CC(F)(F)F)c(=O)c4c3-c3ccccn3)cc2)C1` [Compound 19, 6-(4-((1s,3s)-1-Amino-3-hydroxy-3-methylcyclobutyl)phenyl)-5-(pyridin-2-yl)-3-(2,2,2-trifluoroethyl)thieno[2,3-d]pyrimidin-4(3H)-one.HCl] are over 100 nM, over 6 µM and over 1500 nM.
For `C[C@]1(O)C[C@@](N)(c2ccc(-c3sc4ncn(CC(F)(F)F)c(=O)c4c3-c3ccccn3)cc2)C1` [Compound 20, 6-(4-((1r,3r)-1-Amino-3-hydroxy-3-methylcyclobutyl)phenyl)-5-(pyridin-2-yl)-3-(2,2,2-trifluoroethyl)thieno[2,3-d]pyrimidin-4(3H)-one.HCl], the IC50 was over 100 nM at AKT2, over 6 µM on AKT3 and over 1500 nM on AKT1.
Regarding `NC1(c2ccc(-c3sc4ncn(CC(F)(F)F)c(=O)c4c3-c3ccccc3)cc2)CCC1` [Compound F, reference compound], the IC50 on AKT2 was over 100 nM; on AKT3, over 6 µM; at AKT1, 300 to 1500 nM.
As to `Cn1c(-c2ccc(C3(N)CCC3)cc2)c(-c2ccccc2)c2c(=O)n(CC(F)(F)F)cnc21` [Compound L, reference compound], the 50% inhibitory concentration (IC50) was 20 to 100 nM on AKT2, over 6 µM at AKT3 and 300 to 1500 nM on AKT1.
